Reference: US11667675B2, “MASP inhibitory compounds and uses thereof” (Bayer Aktiengesellschaft, priority 2019, dated 2023)
Like-named read-outs stand apart in the source and are kept apart here. Bridge positions count the residues as written; N and C are the ends. Square brackets hold non-standard residues; d marks the D form. Peptide text beside a SMILES is read from it. Oic = O=C(O)[C@@H]1C[C@@H]2CCCC[C@@H]2N1; Pen = CC(C)(S)[C@H](N)C(=O)O; ΔPro = O=C(O)[C@@H]1C=CCN1; Sar = CNCC(=O)O

What was measured:
Human C3-[…] = test: C3 deposition assay, human serum on mannan-coated plates; type: biochemical
Protocol: 3. C3 Deposition Assay (Human, Rat, Mouse, Dog, Mini-Pig)
The C3 deposition assay was conducted essentially as described (reference). Multi well plates (Greiner-Nunc 384 Maxi Sorp #464718) were coated over night with Mannan from Saccharomyces cerevisiae (Sigma M7504, 10 μg/mL in 0.05 M carbonate-bicarbonate buffer, pH 9.6) at 4° C. Wells were washed three times with TBS and subsequently incubated for 2 hours with 50 μL of 1% bovine serum albumin (BSA) in Tris-buffered saline (TBS) at 37° C. in order to block non-specific binding. After this step and each of the following incubation steps wells were washed three times with C3 wash buffer (TBS; 0.05% Tween 20; 5 mM CaCl2). […] When appropriately developed the color reaction was stopped by addition of 25 μL of stop solution (Sigma S5814) and quantified on a photometer by measuring absorption at a wavelength of 450 nm. Antibodies were diluted in C3 wash buffer supplemented with 0.5% BSA.

human MASP1 = target: T1, human MASP1 (Homo sapiens, UniProt P48740); test: Biochemical human MASP1 assay (FRET substrate); conditions: average IC50
T1 construct: Ig-kappa secretion signal (N, cleaved yes); made in house; host or cells: HEK293 (ATCC No. CRL-1573)
T1 sequence (P48740 297-448): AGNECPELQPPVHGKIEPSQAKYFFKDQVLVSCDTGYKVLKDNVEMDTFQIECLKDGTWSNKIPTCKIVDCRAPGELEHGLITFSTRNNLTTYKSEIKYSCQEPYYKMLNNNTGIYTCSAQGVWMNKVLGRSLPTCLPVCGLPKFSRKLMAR
T1 sequence (P48740 449-699): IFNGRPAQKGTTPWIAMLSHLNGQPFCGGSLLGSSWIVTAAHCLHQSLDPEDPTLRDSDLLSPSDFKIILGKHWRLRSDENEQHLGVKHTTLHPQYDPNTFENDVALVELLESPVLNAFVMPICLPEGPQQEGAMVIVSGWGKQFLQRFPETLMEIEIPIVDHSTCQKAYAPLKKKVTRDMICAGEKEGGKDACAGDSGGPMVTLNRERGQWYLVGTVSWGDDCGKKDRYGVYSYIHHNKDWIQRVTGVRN
Text: (§1) 2.1 Recombinant Expression and Protein Production of Recombinant Human MASP1 and MASP2 Active Proteases.
(§2) The MASP1 or MASP2 expression vectors were transfected into the HEK293 (ATCC No. CRL-1573) cell line using Lipofectamine LTX® Reagent (Thermo-Fischer), as described by the manufacturer. […] The MASP1 and MASP2 proteins were purified from the conditioned media by affinity chromatography on Ni-NTA Superflow resin (Qiagen) as described by the manufacturer.
2.2 Biochemical Human MASP1 Assay
(§3) Recombinant human MASP1 enzyme produced in the HEK 293 cells was diluted in the reaction buffer (50 mM HEPES pH 8,0; 100 mM NaCl; 0.01% CHAPS; 0.5 mM Gluthathione) to the concentration of 20 nM and 25 μl was transferred into each single well of 384-well white microtiter plate (Greiner Bio One 781075). 1 μl of the inhibitor compound solution (dissolved in DMSO, at the corresponding concentration) or pure DMSO as a control was added to the same wells. […] The microtiter plate was incubated for 60-120 min at the temperature of 32 C. The increase of fluorescence intensity was measured in appropriate fluorescence plate reader (e.g. TECAN Ultra) using excitation wavelength of 320 nm and emission wavelength of 420 nm. IC50 values were calculated from percentage of inhibition of human MASP1 activity as a function of test compound concentration.

human MASP2 = target: T2, human MASP2 (Homo sapiens, UniProt O00187); test: Biochemical human MASP2 assay (FRET substrate); conditions: average IC50
T2 construct: Ig-kappa secretion signal (N, cleaved yes); made in house; host or cells: HEK293 (ATCC No. CRL-1573)
Text: as §1, §2
2.3 Biochemical Human MASP2 Assay
as §3, with “MASP2” for “MASP1”, “340” for “320”, “490” for “420”

[1] = average IC50, read-out: Human C3-DEPOSITION SERUM IC50

T2 sequence (O00187 297-444): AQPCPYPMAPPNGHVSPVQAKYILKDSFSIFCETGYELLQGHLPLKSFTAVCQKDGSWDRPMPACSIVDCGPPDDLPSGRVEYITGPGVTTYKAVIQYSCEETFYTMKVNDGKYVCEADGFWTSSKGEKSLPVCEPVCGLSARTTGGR
T2 sequence (O00187 445-686): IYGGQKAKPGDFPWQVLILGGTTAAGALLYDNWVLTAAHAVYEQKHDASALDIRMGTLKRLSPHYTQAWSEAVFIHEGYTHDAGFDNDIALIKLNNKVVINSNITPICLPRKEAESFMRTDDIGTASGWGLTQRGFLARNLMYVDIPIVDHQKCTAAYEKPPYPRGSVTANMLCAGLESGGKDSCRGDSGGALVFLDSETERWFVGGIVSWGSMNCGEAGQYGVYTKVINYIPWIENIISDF

## CC[C@H](C)[C@H](NC(=O)[C@@H]1CSSC[C@H](NC(=O)[C@@H](NC(=O)[C@@H](N)C2CCOCC2)[C@@H](C)CC)C(=O)N[C@@H](CO)C(=O)N[C@@H](CCCNC(=N)N)C(=O)N[C@@H](CO)C(=O)N[C@@H](CC(C)C)C(=O)N2CCC[C@H]2C(=O)N2[C@@H](C[C@@H]3CCCC[C@@H]32)C(=O)N[C@@H]([C@@H](C)CC)C(=O)N1)C(=O)O (single isomer, unassigned) [Example 184]
Human C3-[…]; average IC50, read-out: Human C3-[…] IC50
  IC50: 43 nM
Human MASP1
  IC50: 4.7 nM
Human MASP2
  IC50: 200 nM

## CC[C@H](C)[C@@H]1NC(=O)[C@@H]2CCCN2C(=O)[C@@H]2CCCN2C(=O)[C@H](CC(C)(C)C)NC(=O)[C@H](CO)NC(=O)[C@H](CCCNC(=N)N)NC(=O)[C@H](CO)NC(=O)[C@@H](NC(=O)[C@@H](NC(=O)C(C)(C)CN)[C@@H](C)CC)CSSC(C)(C)[C@@H](C(=O)N[C@H](C(=O)N2CCC[C@H]2C(=O)N[C@@H](CC(=O)O)C(N)=O)[C@@H](C)CC)NC1=O [Example 166, (3-Amino-2,2-dimethylpropionic acid)-IC+SRS-((tBu)A)-PPI-(Pen)+IPD-NH2]
Human C3-[…]; [1]
  IC50: 33.4 nM
Human MASP1
  IC50: 4.2 nM

## CC[C@H](C)[C@H](NC(=O)[C@H](C)N)C(=O)N[C@H]1CSSC(C)(C)[C@@H](C(=O)N[C@H](C(=O)N2CCC[C@H]2C(=O)N[C@@H](CC(=O)O)C(=O)O)[C@@H](C)CC)NC(=O)[C@H]([C@@H](C)CC)NC(=O)[C@@H]2C[C@@H]3CCCC[C@@H]3N2C(=O)[C@@H]2C=CCN2C(=O)[C@H](CC(C)C)NC(=O)[C@H](CO)NC(=O)[C@H](CCCNC(=N)N)NC(=O)[C@H](CO)NC1=O [Example 237] (H-AICSRSL[ΔPro][Oic]I[Pen]IPD-OH; disulfide 3-11)
Human C3-[…]; [1]
  IC50: 14.7 nM
Human MASP1
  IC50: 9.3 nM
Human MASP2
  IC50: 64 nM

## CC[C@H](C)[C@H](NC(=O)CNC)C(=O)N[C@H]1CSSC(C)(C)[C@@H](C(=O)N[C@H](C(=O)N2CCC[C@H]2C(N)=O)[C@@H](C)CC)NC(=O)[C@H]([C@@H](C)CC)NC(=O)[C@@H]2C[C@@H]3CCCC[C@@H]3N2C(=O)[C@@H]2CCCN2C(=O)[C@H](CC(C)C)NC(=O)[C@H](CO)NC(=O)[C@H](CCCNC(=N)N)NC(=O)[C@H](CO)NC1=O [Example 376] (H-[Sar]ICSRSLP[Oic]I[Pen]IP-NH2; disulfide 3-11)
Human C3-[…]; [1]
  IC50: 13.8 nM
Human MASP1
  IC50: 1.1 nM
Human MASP2
  IC50: 35 nM

## (2-Hydroxyacetyl)-IC+SRS-((tBu)A)-PPI-(Pen)+IPD-NH2 [Example 300]
Human C3-[…]; [1]
  IC50: 59.8 nM

## ((N-Me)G)-IC+SRSLP-(Oic)-I-(Pen)+I-((5-Azaspiro[2.4]heptane-1-carboxylic acid)OH [Example 164]
Human C3-[…]; [1]
  IC50: 81.6 nM

## ((N-Me)G)-IC+SRSLP-(Oic)-I-(Pen)+IPD-NH2 [Example 165]
Human C3-[…]; [1]
  IC50: 36 nM

## AIC+SRS-((tBu)A)-PPI-((N-Me)C)+IPD-NH2 (HCl Salt) [Example 30]
Human C3-[…]; [1]
  IC50: 36.1 nM

## AIC+SRSLP-(Oic)-I-(Pen)+IPN-OH [Example 418]
Human C3-[…]; [1]
  IC50: 53.9 nM

## IC+SRSLP-(Oic)-I-(Pen)+IPD-OH [Example 347]
Human C3-[…]; [1]
  IC50: 151 nM

## N-[(5aS,11S,14S,17S,20S,23R,28R,31S,33aS)-31-[(2S)-butan-2-yl]-17-(3-carbamimidamidopropyl)-11-(2,2-dimethylpropyl)-14,20-bis(hydroxymethyl)-27,27-dimethyl-23-({N-[(morpholin-4-yl)acetyl]-L-isoleucyl}amino)-5,10,13,16,19,22,30,33-octaoxooctacosahydro-1H,5H,10H-dipyrrolo[2,1-j:2′,1′][1,2,5,8,11,14,17,20,23,26]dithiaoctaazacyclononacosine-28-carbonyl]-L-isoleucyl-L-prolyl-L-alpha-asparagine [Example 283]
Human C3-[…]; [1]
  IC50: 69.8 nM
